Data: patent publication US10597388B2, “Pyridazinone herbicides” (FMC CORPORATION, priority 2014, dated 2020)

Legend:
Experiment in all cases: Test D controlled growth environment herbicide test, pre- and postemergence
Type in all cases: in vivo
[1] = system: oat, wild (wild oat, Avena fatua)
Procedure, shortened: (§1)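 Species sown in silt loam and sprayed preemergence, or grown in peat-based medium to 2–18 cm (1- to 4-leaf stage) and sprayed postemergence, with compounds in non-phytotoxic solvent plus surfactant. Visual injury scored versus controls after 14–21 d in a controlled environment, 0 (no effect) to 100 (complete control).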

[2] = system: chickweed (common chickweed, Stellaria media)
Procedure, shortened: as §1

[3] = system: speedwell (bird's-eye speedwell, Veronica persica)
Procedure, shortened: as §1

[4] = system: deadnettle (henbit deadnettle, Lamium amplexicaule)
Procedure, shortened: as §1

[5] = system: field violet (Viola arvensis)
Procedure, shortened: as §1

[6] = system: radish, wild (wild radish, Raphanus raphanistrum)
Procedure, shortened: as §1

kochia (Kochia scoparia) = system: kochia (Kochia scoparia)
Procedure, shortened: as §1

[7] = system: wheat, winter (winter wheat, Triticum aestivum)
Procedure, shortened: as §1

[8] = system: field poppy (Papaver rhoeas)
Procedure, shortened: as §1

[9] = system: mustard, wild (wild mustard, Sinapis arvensis)
Procedure, shortened: as §1

[10] = system: Russian thistle (Salsola kali)
Procedure, shortened: as §1

[11] = system: chamomile (scentless chamomile, Matricaria inodora)
Procedure, shortened: as §1

[12] = system: oilseed rape (Brassica napus)
Procedure, shortened: as §1

[13] = system: barley, spring (spring barley, Hordeum vulgare)
Procedure, shortened: as §1

[14] = Postemergence, 31 g ai/ha, scale 0 to 100 (0 no effect, 100 complete control)
[15] = Postemergence, 125 g ai/ha, visual rating on scale 0 (no effect) to 100 (complete control), 14 to 21 d
[16] = Postemergence, 250 g ai/ha, scale 0 to 100 (0 no effect, 100 complete control)
[17] = Preemergence, 62 g ai/ha, scale 0 to 100 (0 no effect, 100 complete control)
[18] = Preemergence, 125 g ai/ha, scale 0 to 100 (0 no effect, 100 complete control)
[19] = Preemergence, 250 g ai/ha, scale 0 to 100, 0 no effect, 100 complete control
[20] = postemergence, 62 g ai/ha, scale 0 to 100, 0 no effect, 100 complete control

COC(=O)Oc1c(C)nn(C)c(=O)c1-c1c(C)sc2ccc(C)cc12 [Compound 80]
Oat, Wild plant response rating [1, 14]: 95 | Plant response rating, Oat, Wild [1, 15]: 100 | Plant response rating, Oat, Wild [1, 16]: 100 | Plant response rating (scale of 0 to 100), Oat, Wild ([1]; Preemergence, 31 g ai/ha): 85 | Plant response rating, Oat, Wild [1, 17]: 90 | Plant response rating, Oat, Wild [1, 18]: 90 | Plant response rating, Oat, Wild [1, 19]: 95 | Plant response rating, Oat, Wild [1, 20]: 98 | Chickweed plant response rating [2, 14]: 90 | Plant response rating, Chickweed [2, 15]: 100 | Plant response rating, Chickweed [2, 16]: 100 | Plant response rating (scale of 0 to 100), Chickweed ([2]; Preemergence, 31 g ai/ha): 100 | Plant response rating, Chickweed [2, 17]: 100 | Plant response rating, Chickweed [2, 18]: 100 | Plant response rating, Chickweed [2, 19]: 100 | Plant response rating, Chickweed [2, 20]: 100 | Speedwell plant response rating [3, 14]: 65 | Plant response rating, Speedwell [3, 15]: 85 | Plant response rating, Speedwell [3, 16]: 80 | Plant response rating (scale of 0 to 100), Speedwell ([3]; Preemergence, 31 g ai/ha): 65 | Plant response rating, Speedwell [3, 17]: 95 | Plant response rating, Speedwell [3, 18]: 95 | Plant response rating, Speedwell [3, 19]: 100 | Plant response rating, Speedwell [3, 20]: 75 | Deadnettle plant response rating [4, 14]: 35 | Plant response rating, Deadnettle [4, 15]: 35 | Plant response rating, Deadnettle [4, 16]: 50 | Plant response rating (scale of 0 to 100), Deadnettle ([4]; Preemergence, 31 g ai/ha): 55 | Plant response rating, Deadnettle [4, 17]: 65 | Plant response rating, Deadnettle [4, 18]: 70 | Plant response rating, Deadnettle [4, 19]: 75 | Plant response rating, Deadnettle [4, 20]: 25 | Field Violet plant response rating [5, 14]: 90 | Plant response rating, Field Violet [5, 15]: 95 | Plant response rating, Field Violet [5, 16]: 100 | Plant response rating (scale of 0 to 100), Field Violet ([5]; Preemergence, 31 g ai/ha): 55 | Plant response rating, Field Violet [5, 17]: 95 | Plant response rating, Field Violet [5, 18]: 100 | Plant response rating, Field Violet [5, 19]: 95 | Plant response rating, Field Violet [5, 20]: 85 | Radish, Wild plant response rating [6, 14]: 10 | Plant response rating, Radish, Wild [6, 15]: 50 | Plant response rating, Radish, Wild [6, 16]: 65 | Plant response rating (scale of 0 to 100), Radish, Wild ([6]; Preemergence, 31 g ai/ha): 20 | Plant response rating, Radish, Wild [6, 17]: 75 | Plant response rating, Radish, Wild [6, 18]: 100 | Plant response rating, Radish, Wild [6, 19]: 100 | Plant response rating, Radish, Wild [6, 20]: 50 | Kochia plant response rating (kochia (Kochia scoparia); [14]): 100 | Plant response rating, Kochia (kochia (Kochia scoparia); [15]): 100 | Plant response rating, Kochia (kochia (Kochia scoparia); [16]): 100 | Plant response rating (scale of 0 to 100), Kochia (kochia (Kochia scoparia); Preemergence, 31 g ai/ha): 35 | Plant response rating, Kochia (kochia (Kochia scoparia); [17]): 75 | Plant response rating, Kochia (kochia (Kochia scoparia); [18]): 100 | Plant response rating, Kochia (kochia (Kochia scoparia); [19]): 100 | Plant response rating, Kochia (kochia (Kochia scoparia); [20]): 100 | Wheat, Winter plant response rating [7, 14]: 0 | Plant response rating, Wheat, Winter [7, 15]: 5 | Plant response rating, Wheat, Winter [7, 16]: 15 | Plant response rating (scale of 0 to 100), Wheat, Winter ([7]; Preemergence, 31 g ai/ha): 0 | Plant response rating, Wheat, Winter [7, 17]: 0 | Plant response rating, Wheat, Winter [7, 18]: 0 | Plant response rating, Wheat, Winter [7, 19]: 20 | Plant response rating, Wheat, Winter [7, 20]: 0 | Field Poppy plant response rating [8, 14]: 60 | Plant response rating, Field Poppy [8, 15]: 100 | Plant response rating, Field Poppy [8, 16]: 100 | Plant response rating (scale of 0 to 100), Field Poppy ([8]; Preemergence, 31 g ai/ha): 90 | Plant response rating, Field Poppy [8, 17]: 100 | Plant response rating, Field Poppy [8, 18]: 100 | Plant response rating, Field Poppy [8, 19]: 100 | Plant response rating, Field Poppy [8, 20]: 80 | Mustard, Wild plant response rating [9, 14]: 35 | Plant response rating, Mustard, Wild [9, 15]: 70 | Plant response rating, Mustard, Wild [9, 16]: 100 | Plant response rating (scale of 0 to 100), Mustard, Wild ([9]; Preemergence, 31 g ai/ha): 0 | Plant response rating, Mustard, Wild [9, 17]: 0 | Plant response rating, Mustard, Wild [9, 18]: 0 | Plant response rating, Mustard, Wild [9, 19]: 0 | Plant response rating, Mustard, Wild [9, 20]: 50 | Russian Thistle plant response rating [10, 14]: 70 | Plant response rating, Russian Thistle [10, 15]: 80 | Plant response rating, Russian Thistle [10, 16]: 80 | Plant response rating (scale of 0 to 100), Russian Thistle ([10]; Preemergence, 31 g ai/ha): 10 | Plant response rating, Russian Thistle [10, 17]: 95 | Plant response rating, Russian Thistle [10, 18]: 95 | Plant response rating, Russian Thistle [10, 19]: 100 | Plant response rating, Russian Thistle [10, 20]: 70 | Chamomile plant response rating [11, 14]: 80 | Plant response rating, Chamomile [11, 15]: 100 | Plant response rating, Chamomile [11, 16]: 100 | Plant response rating (scale of 0 to 100), Chamomile ([11]; Preemergence, 31 g ai/ha): 95 | Plant response rating, Chamomile [11, 17]: 100 | Plant response rating, Chamomile [11, 18]: 100 | Plant response rating, Chamomile [11, 19]: 100 | Plant response rating, Chamomile [11, 20]: 95 | Oilseed Rape plant response rating [12, 14]: 15 | Plant response rating, Oilseed Rape [12, 15]: 65 | Plant response rating, Oilseed Rape [12, 16]: 75 | Plant response rating (scale of 0 to 100), Oilseed Rape ([12]; Preemergence, 31 g ai/ha): 35 | Plant response rating, Oilseed Rape [12, 17]: 35 | Plant response rating, Oilseed Rape [12, 18]: 35 | Plant response rating, Oilseed Rape [12, 19]: 40 | Plant response rating, Oilseed Rape [12, 20]: 55 | Barley, Spring plant response rating [13, 14]: 0 | Plant response rating, Barley, Spring [13, 15]: 15 | Plant response rating, Barley, Spring [13, 16]: 25 | Plant response rating (scale of 0 to 100), Barley, Spring ([13]; Preemergence, 31 g ai/ha): 0 | Plant response rating, Barley, Spring [13, 17]: 0 | Plant response rating, Barley, Spring [13, 18]: 5 | Plant response rating, Barley, Spring [13, 19]: 0 | Plant response rating, Barley, Spring [13, 20]: 10
